Assay results: US20060003974A1, “Bile acid derived steroidal dimers with amphiphilic topology having antiproliferative activity” (COUNCIL OF SCIENTIFIC AND INDUSTRIAL RESEARCH, priority 2004, published 2006)

Columns and labels:
[1] = tested on: human mammary adenocarcinoma (MCF-7); assay: MTT cell proliferation assay, MCF-7 cells; format: cell-based; details: for IC50: Homo sapiens, MCF7, 72 h treatment, MTT, read-out: IC50, reduction in proliferation
Procedure: (§1) Antiproliferative Activity, Materials and methods: Human oral squamous carcinoma HEp-2 and human mammary adenocarcinoma (MCF-7) cell lines were obtained from National Centre for Cell Science, Pune, India. Cells were maintained as a monolayer in nutrient media MEM supplemented with heat inactivated fetal bovine serum (HyClone, Utah, USA) (10%), penicillin (100 U/ml) and streptomycin (100 μg/ml) (Invitrogen Life Technologies, MD, USA). The cells were grown at 37° C. in 5% CO2 and humidified air atmosphere. Stock solutions of all the compounds were prepared in DMSO at a concentration of 10-11.5 mM and afterwards diluted to the required concentration. The 3-(4,5-dimethylthiazol-2-yl)-2,5-diphenyltetrazolium bromide (MTT) was dissolved (1 mg/ml) in MEM (without phenol red) and filtered through a Millipore filter, 0.22 μm, before use. MTT Cell Proliferation Assay: (HEp-2) and (MCF-7) cells were plated at a density of 15,000 cells per well in 96 well tissue culture plates. Cells were allowed to adhere for 24 h at 37° C. and then treated with various concentrations (0, 0.1, 1.0, and 10 μM) of compounds dissolved in DMSO for additional 72 h, in triplicates. In the control wells nutrient medium with correspondent concentration of DMSO only was added to the cells. Thereafter cell proliferation was assessed by replacing treatment medium with 50 μL media containing 1 mg/mL MTT and incubated for 4 h at 37° C. Medium was then aspirated off and formazan crystals were solubilized in […] of isopropanol. The optical density was read on a microplate reader at 570 nm using 630 nm as a reference filter against a blank prepared from cell free wells. Absorbance given by cells treated with the carrier DMSO alone was taken as 100% cell growth. All assays were performed in triplicates. Antiproliferative Activity. The antiproliferative activity of both the compounds 2 and 3 were tested against human cancer cells, HEp-2 and MCF-7 which were grown in vitro. Compound (2) up to a concentration of 10 μM had no effect on the survival of HEp-2 and MCF-7 cells. […] IC50 value for compound (2) was between 2-3 μM.

[2] = tested on: Human oral squamous carcinoma HEp-2; assay: MTT cell proliferation assay, HEp-2 cells; format: cell-based; details: for IC50: Homo sapiens, 72 h treatment, MTT, read-out: IC50, reduction in proliferation
Procedure: as §1

| SMILES | melting point [°C] | IC50 [1] [nM] | effect on survival of cells ([1]; up to a concentration of 10 μM) | IC50 [2] [nM] | effect on survival of cells ([2]; up to a concentration of 10 μM) | reduction in proliferation ([1]; 0.1-10 μM, 72 h) | growth inhibition at 10 μM ([1]; at 10 μM concentration, 72 h) | reduction in proliferation ([2]; 0.1-10 μM, 72 h) | growth inhibition at 10 μM ([2]; at 10 μM concentration, 72 h) |
| --- | --- | --- | --- | --- | --- | --- | --- | --- | --- |
| C[C@H](CCC(=O)NCCNC(=O)CC[C@@H](C)[C@H]1CCC2C3C(C[C@H](O)[C@@]21C)[C@@]1(C)CC[C@@H](O)CC1C[C@H]3O)[C@H]1CCC2C3C(C[C@H](O)[C@@]21C)[C@@]1(C)CC[C@@H](O)CC1C[C@H]3O (stereo partly drawn) [Compound 2, N^1,N^2-Ethylenediamine bis [cholic acid amide]] | 205 | 2000 to 3000 | no effect | 2000 to 3000 | no effect |  |  |  |  |
| C[C@H](CCC(=O)NCCNC(=O)CC[C@@H](C)[C@H]1CCC2C3CCC4C[C@H](O)CC[C@]4(C)C3C[C@H](O)[C@@]21C)[C@H]1CCC2C3CCC4C[C@H](O)CC[C@]4(C)C3C[C@H](O)[C@@]21C (stereo partly drawn) [Compound 3, N^1,N^2-Ethylenediamine bis [deoxycholic acid amide]] | 170 | 2000 to 4000 |  | 2000 to 4000 |  | significant reduction | totally inhibited | significant reduction | totally inhibited |
